Results published in patent US11161843B2, “Fused heterocyclic compound and composition containing same” (Sumitomo Chemical Company, Limited, priority 2017, dated 2021).

Tests used:
[1] = system: cotton aphid; experiment: Test Example 2: irrigation into plant foot of cucumber seedling, cotton aphid inoculated after 7 days; format: in vivo, Aphis gossypii; conditions: 1,000 ppm, 5 mL/seedling irrigated into plant foot, aphids inoculated after 7 days, counted after additional 6 days
Description: The test compounds were made to a formulation according to the method described in the Formulation Example 5, and thereto was added water to prepare a diluted solution containing a prescribed concentration of the test compound. Cucumber seedling (on the developmental stage of the second true leaf) was planted in a container, and the diluted solutions in the ratio on 5 mL/seedling were irrigated into the plant foot. After 7 days, approximately 30 of cotton aphid (all stages of life) were inoculated onto the cucumber leaves. After additional 6 days, the number of the surviving insects was examined, and the controlling value was calculated by the following equation. Controlling value (%)={1−(Cb×Tai)/(Cai×Tb)}*100 wherein the symbols in the formula represent the following descriptions. Cb: Number of the test insects in untreated group; Cai: Number of the surviving insects at the time of the investigation in untreated group; Tb: Number of the test insects in treated group; Tai: Number of the surviving insects at the time of the investigation in treated group; Here the “untreated group” represents a group where a similar treatment procedure to that of the treated group except not using the test compound is done.

[2] = system: brown planthopper (Nilaparvata lugens); experiment: Test Example 3: spray on rice seedling, brown planthopper larvae; format: in vivo; conditions: 500 ppm, spray 10 mL/seedling, 3rd instar larvae, counted after 6 days
Description: The test compounds were made to a formulation according to the method described in the Formulation Example 5, and thereto was added water containing 0.03 v/v % of a spreader to prepare a diluted solution containing a prescribed concentration of the test compound.
Rice (Oryza sativa) seedling (on the developmental stage of the second true leaf) was planted in a container, and the diluted solutions were sprayed into the seedling in a ratio of 10 mL/seedling. Thereafter, 20 of 3rd instar larvae of brown planthopper (Nilaparvata lugens) were released onto the rice leaves. After 6 days, the number of the surviving insects was examined, and the mortality was calculated by the following equation. Mortality (%)={1−the number of the surviving insects/20}×100

In the case of `CCS(=O)(=O)c1ccc2nncn2c1-c1ccc(OCC(F)(F)C(F)(F)F)cn1` [compound 4], the controlling value [1] is reported as at least 90% and the controlling value [2] is reported as at least 90%.
